System: MDA-MB-468
Experiment: normalised response (% of control), CellTiter-Glo; higher = more viable cells (100 = DMSO, 0 = benzethonium chloride kill control)
Conditions: incubation time: 72 h
How it was run: (§1)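 A 20 µl suspension of breast cancer cells was seeded into each well of 384-well plates containing compound at 5 concentrations in 10-fold steps over a compound-specific 10,000-fold range. After 72 h incubation, CellTox Green fluorescence (485/520 nm) was read first, and CellTiter-Glo luminescence was read after 10 min at room temperature. Each plate was normalised against 0.1 % DMSO (100) and a positive kill control (0), and each value is the normalised signal at one concentration.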

Structure (SMILES)	normalised response [%]
CCCCCCCCCCCCCCCCCCOP(=O)([O-])OC1CC[N+](C)(C)CC1 [Perifosine] (250 nM)	99.7
N.N.[Cl][Pt][Cl] [Cisplatin] (100 nM)	98.5
N#CCNC(=O)c1ccc(-c2ccnc(Nc3ccc(N4CCOCC4)cc3)n2)cc1 [Momelotinib] (1000 nM)	82.5
C[C@@H](Oc1cc(-c2cnn(C3CCNCC3)c2)cnc1N)c1c(Cl)ccc(F)c1Cl [Crizotinib] (100 nM)	96.1

System: CAL-148
Experiment: as above
Conditions: incubation time: 72 h
How it was run: as §1

Structure (SMILES)	normalised response [%]
Cc1ccc(C(=O)N(CCCN)[C@@H](c2oc3cc(Cl)ccc3c(=O)c2Cc2ccccc2)C(C)C)cc1 (10 nM)	91.3
CC(=O)Nc1ccc(C(=O)Nc2ccccc2N)cc1 [Tacedinaline] (100 nM)	97.2
NC(=O)Nc1cc(-c2cccc(F)c2)sc1C(=O)N[C@H]1CCCNC1 [AZD7762] (100 nM)	97.9
O=C(O)c1ccc(-c2c[nH]c3ncc(-c4ccccc4)cc23)cc1C1CCCC1 (1000 nM)	95.6
CCCCCCCCCCCCCCCCCCOP(=O)([O-])OC1CC[N+](C)(C)CC1 [Perifosine] (250 nM)	97.7
CCC(C)(C)C(=O)O[C@H]1C[C@@H](C)C=C2C=C[C@H](C)[C@H](CC[C@@H]3C[C@@H](O)CC(=O)O3)[C@H]21 [Simvastatin] (1000 nM)	104
N.N.[Cl][Pt][Cl] [Cisplatin] (100 nM)	90.7
N#CCNC(=O)c1ccc(-c2ccnc(Nc3ccc(N4CCOCC4)cc3)n2)cc1 [Momelotinib] (1000 nM)	85
C[C@@H](Oc1cc(-c2cnn(C3CCNCC3)c2)cnc1N)c1c(Cl)ccc(F)c1Cl [Crizotinib] (100 nM)	95.6

System: MFM-223
Experiment: as above
Conditions: incubation time: 72 h
How it was run: as §1

Structure (SMILES)	normalised response [%]
Cc1ccc(C(=O)N(CCCN)[C@@H](c2oc3cc(Cl)ccc3c(=O)c2Cc2ccccc2)C(C)C)cc1 (10 nM)	90.2
CC(=O)Nc1ccc(C(=O)Nc2ccccc2N)cc1 [Tacedinaline] (100 nM)	106
NC(=O)Nc1cc(-c2cccc(F)c2)sc1C(=O)N[C@H]1CCCNC1 [AZD7762] (100 nM)	104
O=C(O)c1ccc(-c2c[nH]c3ncc(-c4ccccc4)cc23)cc1C1CCCC1 (1000 nM)	95.6
CCCCCCCCCCCCCCCCCCOP(=O)([O-])OC1CC[N+](C)(C)CC1 [Perifosine] (250 nM)	93.7
CCC(C)(C)C(=O)O[C@H]1C[C@@H](C)C=C2C=C[C@H](C)[C@H](CC[C@@H]3C[C@@H](O)CC(=O)O3)[C@H]21 [Simvastatin] (1000 nM)	98.9
N.N.[Cl][Pt][Cl] [Cisplatin] (100 nM)	96.6
N#CCNC(=O)c1ccc(-c2ccnc(Nc3ccc(N4CCOCC4)cc3)n2)cc1 [Momelotinib] (1000 nM)	93.4
C[C@@H](Oc1cc(-c2cnn(C3CCNCC3)c2)cnc1N)c1c(Cl)ccc(F)c1Cl [Crizotinib] (100 nM)	97.1

System: HCC1143
Experiment: as above
Conditions: incubation time: 72 h
How it was run: as §1

Structure (SMILES)	normalised response [%]
Cc1ccc(C(=O)N(CCCN)[C@@H](c2oc3cc(Cl)ccc3c(=O)c2Cc2ccccc2)C(C)C)cc1 (10 nM)	97.1
CC(=O)Nc1ccc(C(=O)Nc2ccccc2N)cc1 [Tacedinaline] (100 nM)	97.1
NC(=O)Nc1cc(-c2cccc(F)c2)sc1C(=O)N[C@H]1CCCNC1 [AZD7762] (100 nM)	96.8
O=C(O)c1ccc(-c2c[nH]c3ncc(-c4ccccc4)cc23)cc1C1CCCC1 (1000 nM)	101
CCCCCCCCCCCCCCCCCCOP(=O)([O-])OC1CC[N+](C)(C)CC1 [Perifosine] (250 nM)	104
CCC(C)(C)C(=O)O[C@H]1C[C@@H](C)C=C2C=C[C@H](C)[C@H](CC[C@@H]3C[C@@H](O)CC(=O)O3)[C@H]21 [Simvastatin] (1000 nM)	96.3
N.N.[Cl][Pt][Cl] [Cisplatin] (100 nM)	104
N#CCNC(=O)c1ccc(-c2ccnc(Nc3ccc(N4CCOCC4)cc3)n2)cc1 [Momelotinib] (1000 nM)	91.7
C[C@@H](Oc1cc(-c2cnn(C3CCNCC3)c2)cnc1N)c1c(Cl)ccc(F)c1Cl [Crizotinib] (100 nM)	100

System: BT-474
Experiment: as above
Conditions: incubation time: 72 h
How it was run: as §1

Structure (SMILES)	normalised response [%]
Cc1ccc(C(=O)N(CCCN)[C@@H](c2oc3cc(Cl)ccc3c(=O)c2Cc2ccccc2)C(C)C)cc1 (10 nM)	97.9
CC(=O)Nc1ccc(C(=O)Nc2ccccc2N)cc1 [Tacedinaline] (100 nM)	105
NC(=O)Nc1cc(-c2cccc(F)c2)sc1C(=O)N[C@H]1CCCNC1 [AZD7762] (100 nM)	93.7
O=C(O)c1ccc(-c2c[nH]c3ncc(-c4ccccc4)cc23)cc1C1CCCC1 (1000 nM)	89.9
CCCCCCCCCCCCCCCCCCOP(=O)([O-])OC1CC[N+](C)(C)CC1 [Perifosine] (250 nM)	102
CCC(C)(C)C(=O)O[C@H]1C[C@@H](C)C=C2C=C[C@H](C)[C@H](CC[C@@H]3C[C@@H](O)CC(=O)O3)[C@H]21 [Simvastatin] (1000 nM)	75
N.N.[Cl][Pt][Cl] [Cisplatin] (100 nM)	102
N#CCNC(=O)c1ccc(-c2ccnc(Nc3ccc(N4CCOCC4)cc3)n2)cc1 [Momelotinib] (1000 nM)	77.1
C[C@@H](Oc1cc(-c2cnn(C3CCNCC3)c2)cnc1N)c1c(Cl)ccc(F)c1Cl [Crizotinib] (100 nM)	102

Reference: the supplement of paper PMC4862054
